From patent US8097269B2, “Bioactive material delivery systems comprising sol-gel compositions” (Celonova Biosciences, Inc., priority 2004, dated 2012)

Key:
[1] = Elution of DAA-I from stents coated with increasing amounts of TEOS; format: physicochemical; settings: 0.1-0.5M TEOS with constant DAA-I 1.25 mg/mL; effect of increasing TEOS to drug molar ratio; 9 mm stents; FIGS. 5A-5B
Protocol: To explore the effects of increasing the amount of TEOS on the rate of elution of DAA-I, increasing amounts, from 0.1-0.5M of TEOS were added to a constant amount of DAA-I (1.25 mg/mL) according to the methods and protocols described above. The stents (9 mm, n=4) were sprayed with each of the solutions as described above, weighed, and the amounts DAA-I eluted over a 24 hour period were compared.

[2] = pH 5
Protocol: Referring to FIG. 4, elution of DAA-I from the TEOS coated stents was measured by analyzing the amount of DAA-I found in 0.1% solutol in ammonium acetate buffer, pH 5.0, as a function of time, when the stents were incubated in this medium at 37° C. The amount of DAA-I was determined by integrating the DAA-I peak in high performance liquid chromatography (HPLC) profiles using a Altima C-8 column (Altech, Chicago Ill.) and comparison to standard curves.

Substance: des-aspartate angiotensin I [DAA-I]
- rate of release of the drug into aqueous solution [1]: significantly delayed the rate of release
- rate of DAA-I elution [2]: slow the rate of DAA-I elution
